Test system: advanced HCC
Test: Phase I/II trial (Phase II part) of resminostat in combination with sorafenib versus sorafenib alone, first-line, overall survival by baseline platelet count
Assay type: in vivo, human
Description: A Phase I/II trial investigating resminostat in the indication of hepatocellular cancer (HCC) was conducted. The study was an open-label, multi-center Phase I/II study in patients with advanced HCC previously untreated with systemic chemotherapy (first-line therapy) to determine the MTD and to evaluate safety and efficacy of resminostat in combination with sorafenib. The study was conducted in Japan and Korea. The main eligibility criteria included a performance status of ECOG 0-1, adequate hepatic, renal, cardiac and bone marrow function and a life expectancy of more than 12 weeks.
In the Phase II part, a total of 170 patients were enrolled. Patients were randomly allocated to either the combination group (86 patients) or the monotherapy group (84 patients) at the RD determined from phase I. Randomization was performed with the minimization method using the following 2 factors as stratification factors: study site; and vascular invasion (presence or absence). The trial is registered at www.clinicaltrials.jp (Identifier: JapicCTI-132124) and www.clinicalTrials.gov (NCT02400788). Overall Survival (OS) were evaluated by the Kaplan-Meier method. A point estimate of the hazard ratio was calculated for each subgroup categorized by baseline platelet level as well as the 95% confidence interval of the estimate.
Treatment regimen: Mono group: A cycle was defined as 14 days. Sorafenib (800 mg) was given daily. Combination group: A cycle was defined as 14 days. Sorafenib (800 mg) was given daily. Resminostat (400 mg) was given daily on Days 1 to 5 and suspended on Days 6 to 14.
Blood was collected into a blood collection tubes precharged with EDTA-2K and then immediately inverted 4-5 times to mix. The mixed sample was stored refrigerated for further analysis.
Platelet count analysis was conducted with the Sheath Flow DC Detection method (Sysmex, Kobe, Japan). A method is described in detail in WALTERS J., GARRITY P. (2000): Performance Evaluation of the Sysmex XE-2100 Hematology Analyzer; Laboratory Hematology 6: 83-92. […]

For `CNC(=O)c1cc(Oc2ccc(NC(=O)Nc3ccc(Cl)c(C(F)(F)F)c3)cc2)ccn1` [sorafenib, 4-[4-[[4-chloro-3-(trifluoromethyl)phenyl]carbamoylamino]phenoxy]-N-methyl-pyridine-2-carboxamide], the “overall survival (OS), in words” value (patients with platelet count of about 150000 platelets/μL or above compared to below about 150000 (FIG. 1)) was “shorter overall survival”, the “median overall survival (mOS)” value (patients with platelet count ≥151×10^3/μL (median) at baseline) was 5.1 months and the “median overall survival (mOS)” value (patients with platelet level below median (<151×10^3/μL)) was 17.5 months.

— US20200016118A1, “HDAC INHIBITOR IN COMBINATION WITH VEGF/VEGFR INTERACTION FOR CANCER THERAPY BASED ON PLATELET COUNT” (4SC AG, priority 2017, published 2020)
